Assay [1] deals with HIV-I infected H9 cells (antiviral activity). Put plainly: Antiviral activity against HIV-I infected H9 cells.
Assay [2] has as its target Human immunodeficiency virus type 1 protease (Human immunodeficiency virus 1, UniProt Q72874). Put plainly: Inhibitory activity against HIV-I protease.

The record followed here is BindingDB's records for doi:10.1021/jm00022a011 (Upjohn Laboratories, 1995).

As a reminder, the IC50 is the midpoint of a concentration-inhibition curve. A low value points to greater potency in that assay. As usually defined, the Ki is the dissociation constant of the complex between target and ligand, obtained from inhibition or displacement. A higher Ki goes with weaker binding.

`CCNC(=O)Nc1cccc(C(c2c(O)c3c(oc2=O)CCCCCC3)C2CC2)c1` (configuration not stated) [1-{3-[Cyclopropyl-(4-hydroxy-2-oxo-5,6,7,8,9,10-hexahydro-2H-cycloocta[b]pyran-3-yl)-methyl]-phenyl}-3-ethyl-urea] showed an IC50 in assay [1] of more than 60 µM.
`O=C(Nc1ccccc1)Nc1cccc(C(c2c(O)c3c(oc2=O)CCCCCC3)C2CC2)c1` (configuration not stated) [1-{3-[Cyclopropyl-(4-hydroxy-2-oxo-5,6,7,8,9,10-hexahydro-2H-cycloocta[b]pyran-3-yl)-methyl]-phenyl}-3-phenyl-urea] yielded an IC50 in assay [1] of 21.7 µM.
Still for that read-out and setting: the result for `CCCC1CCCCCCc2c1oc(=O)c(C(c1ccccc1)C1CC1)c2O` (configuration not stated) [3-(Cyclopropyl-phenyl-methyl)-4-hydroxy-11-propyl-6,7,8,9,10,11-hexahydro-5H-cyclonona[b]pyran-2-one] reads 5.3 µM.
In turn, `O=c1oc2c(c(O)c1C(c1ccccc1)C1CC1)CCCCCC2CC1CC1` (configuration not stated) [10-Cyclopropylmethyl-3-(cyclopropyl-phenyl-methyl)-4-hydroxy-5,6,7,8,9,10-hexahydro-cycloocta[b]pyran-2-one] showed a Ki in assay [2] of 0.024 µM.
In turn, `O=c1oc2c(c(O)c1C(c1ccccc1)C1CC1)CCCCCCC2CC1CC1` (configuration not stated) [11-Cyclopropylmethyl-3-(cyclopropyl-phenyl-methyl)-4-hydroxy-6,7,8,9,10,11-hexahydro-5H-cyclonona[b]pyran-2-one] showed a Ki in assay [2] of 0.024 µM.
As to `CC(C)(C)OC(=O)NCCC(=O)Nc1cccc(C(c2c(O)c3c(oc2=O)CCCCCC3)C2CC2)c1` (configuration not stated) [(2-{3-[Cyclopropyl-(4-hydroxy-2-oxo-5,6,7,8,9,10-hexahydro-2H-cycloocta[b]pyran-3-yl)-methyl]-phenylcarbamoyl}-ethyl)-carbamic acid tert-butyl ester], half-maximal inhibition in assay [1] (IC50) was put at 33.4 µM.
The same measure, in the same setting: next, `CC(C)(C)OC(=O)NCCCC(=O)Nc1cccc(C(c2c(O)c3c(oc2=O)CCCCCC3)C2CC2)c1` (configuration not stated) [(3-{3-[Cyclopropyl-(4-hydroxy-2-oxo-5,6,7,8,9,10-hexahydro-2H-cycloocta[b]pyran-3-yl)-methyl]-phenylcarbamoyl}-propyl)-carbamic acid tert-butyl ester]: 49.5 µM.
On to `C[C@@H](NC(=O)OC(C)(C)C)C(=O)Nc1cccc(C(c2c(O)c3c(oc2=O)CCCCCC3)C2CC2)c1` (stereo partly drawn) [((R)-1-{3-[Cyclopropyl-(4-hydroxy-2-oxo-5,6,7,8,9,10-hexahydro-2H-cycloocta[b]pyran-3-yl)-methyl]-phenylcarbamoyl}-ethyl)-carbamic acid tert-butyl ester], for which the IC50 in assay [1] is more than 60 µM.
Take `C[C@H](NC(=O)OC(C)(C)C)C(=O)Nc1cccc(C(c2c(O)c3c(oc2=O)CCCCCC3)C2CC2)c1` (stereo partly drawn) [((S)-1-{3-[Cyclopropyl-(4-hydroxy-2-oxo-5,6,7,8,9,10-hexahydro-2H-cycloocta[b]pyran-3-yl)-methyl]-phenylcarbamoyl}-ethyl)-carbamic acid tert-butyl ester]: in assay [1], it took 31.8 µM to reach half-maximal inhibition (IC50).
In the case of `O=C(C=Cc1ccccc1)Nc1cccc(C(c2c(O)c3c(oc2=O)CCCCCC3)C2CC2)c1` (configuration not stated) [(E)-N-{3-[Cyclopropyl-(4-hydroxy-2-oxo-5,6,7,8,9,10-hexahydro-2H-cycloocta[b]pyran-3-yl)-methyl]-phenyl}-3-phenyl-acrylamide], in assay [1], the IC50 came out at 17.1 µM.
Compound `CC(C)(C)OC(=O)N1CCC[C@H]1C(=O)Nc1cccc(C(c2c(O)c3c(oc2=O)CCCCCC3)C2CC2)c1` (stereo partly drawn) [(S)-2-{3-[Cyclopropyl-(4-hydroxy-2-oxo-5,6,7,8,9,10-hexahydro-2H-cycloocta[b]pyran-3-yl)-methyl]-phenylcarbamoyl}-pyrrolidine-1-carboxylic acid tert-butyl ester] yielded an IC50 in assay [1] of 29.2 µM.
`CC(C)(C)OC(=O)NCC(=O)Nc1cccc(C(c2c(O)c3c(oc2=O)CCCCCC3)C2CC2)c1` (configuration not stated) [({3-[Cyclopropyl-(4-hydroxy-2-oxo-5,6,7,8,9,10-hexahydro-2H-cycloocta[b]pyran-3-yl)-methyl]-phenylcarbamoyl}-methyl)-carbamic acid tert-butyl ester] gave an IC50 in assay [1] of 29.8 µM.
For `O=C(Cc1ccccc1)Nc1cccc(C(c2c(O)c3c(oc2=O)CCCCCC3)C2CC2)c1` (configuration not stated) [N-{3-[Cyclopropyl-(4-hydroxy-2-oxo-5,6,7,8,9,10-hexahydro-2H-cycloocta[b]pyran-3-yl)-methyl]-phenyl}-2-phenyl-acetamide], in assay [1], inhibition was half-maximal at 17.3 µM (IC50).
In assay [1], `O=C(Nc1cccc(C(c2c(O)c3c(oc2=O)CCCCCC3)C2CC2)c1)c1ccc(F)cc1` (configuration not stated) [N-{3-[Cyclopropyl-(4-hydroxy-2-oxo-5,6,7,8,9,10-hexahydro-2H-cycloocta[b]pyran-3-yl)-methyl]-phenyl}-4-fluoro-benzamide] returned an IC50 of 21.9 µM.
For the compound `O=C(Nc1cccc(C(c2c(O)c3c(oc2=O)CCCCCC3)C2CC2)c1)c1ccccc1` (configuration not stated) [N-{3-[Cyclopropyl-(4-hydroxy-2-oxo-5,6,7,8,9,10-hexahydro-2H-cycloocta[b]pyran-3-yl)-methyl]-phenyl}-benzamide], the IC50 in assay [1] is 23.5 µM.
Same read-out and setting: next, `CCCC(=O)Nc1cccc(C(c2c(O)c3c(oc2=O)CCCCCC3)C2CC2)c1` (configuration not stated) [N-{3-[Cyclopropyl-(4-hydroxy-2-oxo-5,6,7,8,9,10-hexahydro-2H-cycloocta[b]pyran-3-yl)-methyl]-phenyl}-butyramide]: 35.1 µM; `CC(C)(C)OC(=O)N[C@@H](Cc1cnc[nH]1)C(=O)Nc1cccc(C(c2c(O)c3c(oc2=O)CCCCCC3)C2CC2)c1` (stereo partly drawn) [[(S)-1-{3-[Cyclopropyl-(4-hydroxy-2-oxo-5,6,7,8,9,10-hexahydro-2H-cycloocta[b]pyran-3-yl)-methyl]-phenylcarbamoyl}-2-(1H-imidazol-4-yl)-ethyl]-carbamic acid tert-butyl ester]: 45.3 µM.
